Source: PMC11321617 (Advanced Science, 2024)
In brackets after ≈: the same amount, converted by molar mass. Bridge positions count the residues as written; N and C are the ends. Square brackets hold non-standard residues; d marks the D form. Peptide text beside a SMILES is read from it. * marks the point of attachment. X1 = CC[C@H](C)CCCCC(=O)*; Dab = NCC[C@H](N)C(=O)O

What was measured:
[1] = system: diabetic wound infections; settings: cecropin ref 27b, SCIBIOIII ref 28, QHREDGS ref 29, LL‐37 ref 30; cited from earlier work
Excerpt: A significant concern in diabetic wound infections is the complexity of mixed bacterial infections, contributing to prolonged wound healing times, extended periods of inflammation, and a heightened risk of ulcer recurrence.^[ [26] ^] Naturally, an ointment that eliminates these microorganisms holds enormous promise for treating diabetes patients who have recurring infections and preventing the development of antibiotic resistance and transmission. According to earlier research, this CaAGE hydrogel basis was ideal for the AMPs.^[ [27] ^] in terms of the stability, release profile, and antibacte ...

[2] = system: Salmonella typhimurium SL1344; assay: MIC assay (microplate broth dilution); type: cell-based; settings: Salmonella enterica, 18 h
Procedure: (§1) The MICs of the peptides were determined using the microplate broth dilution method.^[ [32] ^] The bacteria in the mid‐log phase were diluted to 5 × 10^5 colony forming units (CFU) mL^−1 in TSB. 100 µL of serially diluted peptide solution and 100 µL of diluted bacteria were put to a sterile 96‐well plate.

[3] = system: Enterococcus faecalis 4P‐SA; assay: microbe, parasite or virus in culture; type: cell-based; settings: broth dilution, TSB, 5 × 10^5 CFU mL^−1, 18 h, 37 °C
Procedure: as §1

[4] = system: Enterococcus faecalis ATCC51299; assay: microbe, parasite or virus in culture; type: cell-based; settings: ATCC51299, 18 h
Procedure: as §1

Klebsiella pneumoniae K7 = assay: microbe, parasite or virus in culture; type: cell-based; settings: broth dilution, TSB, 5 × 10^5 CFU mL^−1, 18 h, 37 °C
Procedure: as §1

[5] = system: Methicillin‐Resistant Staphylococcus aureus USA300; assay: microbe, parasite or virus in culture; type: cell-based; settings: broth dilution, TSB, 5 × 10^5 CFU mL^−1, 18 h, 37 °C, MRSA USA300
Procedure: as §1

[6] = system: Pseudomonas aeruginosa ATCC 27853; assay: microbe, parasite or virus in culture; type: cell-based; settings: ATCC27853, broth dilution, TSB, 5 × 10^5 CFU mL^−1, 18 h, 37 °C
Procedure: as §1

[7] = system: Salmonella pullorum ATCC19945; assay: microbe, parasite or virus in culture; type: cell-based; settings: Salmonella enterica, broth dilution, TSB, 5 × 10^5 CFU mL^−1, 18 h, 37 °C
Procedure: as §1

[8] = system: Staphylococcus aureus ATCC25904; assay: microbe, parasite or virus in culture; type: cell-based; settings: broth dilution, TSB, 5 × 10^5 CFU mL^−1, 18 h, 37 °C
Procedure: as §1

[9] = system: Staphylococcus aureus ATCC25923; assay: microbe, parasite or virus in culture; type: cell-based; settings: broth dilution, TSB, 5 × 10^5 CFU mL^−1, 18 h, 37 °C
Procedure: as §1

[10] = system: Staphylococcus aureus ATCC29213; assay: microbe, parasite or virus in culture; type: cell-based; settings: broth dilution, TSB, 5 × 10^5 CFU mL^−1, 18 h, 37 °C
Procedure: as §1

[11] = system: Staphylococcus epidermidis YYF‐771; assay: microbe, parasite or virus in culture; type: cell-based; settings: broth dilution, TSB, 5 × 10^5 CFU mL^−1, 18 h, 37 °C
Procedure: as §1

Bacillus subtilis BL‐4 = assay: microbe, parasite or virus in culture; settings: 18 h
Procedure: as §1

[12] = system: Listeria monocytogenes 10403S; assay: microbe, parasite or virus in culture; settings: 18 h
Procedure: as §1

[13] = system: Listeria monocytogenes ATCC19115; assay: microbe, parasite or virus in culture; settings: ATCC19115, 18 h
Procedure: as §1

[14] = system: Listeria monocytogenes EGD; assay: microbe, parasite or virus in culture; settings: 18 h
Procedure: as §1

[15] = system: drug‐resistant Gram‐positive bacterial infections; settings: cited from earlier work
Excerpt: Conventional screening methods have been unsuccessful in discovering new antibiotics in recent years.^[ [16] ^] Traditional screening sources seem overexploited and tend to produce compounds that are already known. However, uncultured bacteria represent a significant and untapped reservoir of novel natural product frameworks.^[ [17] ^] […] In the context of this ...

Escherichia coli O157:H7 = type: cell-based; settings: broth dilution, TSB, 5 × 10^5 CFU mL^−1, 18 h, 37 °C
Procedure: as §1

E. coli O157:H7 = assay: Time‐kill kinetics; type: cell-based, Escherichia coli; settings: 4 × MIC, 1 × 10^5 CFU mL^−1 E. coli O157:H7, 37 °C; n = 3
Procedure: During the logarithmic growth phase, 1 × 10^5 CFU mL^−1 of E. coli O157:H7 was diluted in 1 mL, the peptides were incubated with the bacterial solution for several intervals.^[ [42] ^] The solution was diluted to a suitable ratio and evenly distributed across the TSB agar plates. Before being counted, colonies were cultured for one night at 37 °C.

[16] = system: persisters induced from E. coli; assay: Bactericidal activity against persisters; type: cell-based, Escherichia coli; settings: colistin at 4 × MIC (25 µmol L^−1), 24 h; rifampicin‐induced E. coli persisters; n = 3
Procedure: Previously recognized and widely used procedures for developing persisters. The bacterial cells, with a turbidity of 0.8 at 600 nm, were obtained in the mid‐log phase. The culture was cultured at 37 °C for 30 min after 100 µg mL^−1 rifampicin (Macklin, Shanghai, China) was added. The rifampicin‐treated culture was centrifuged, and the pellet was resuspended in TSB containing ampicillin (final concentration: 300 µg mL^−1; Macklin, Shanghai, China) to remove nonpersister cells. […] Then cultured for 24 h, spotted on TSB agar, and incubated overnight at 37 °C.

QHREDGS [AMP researched for diabetic wound infections]
bacterial count reduction / wound healing in diabetic wound infections [1]: none of these peptides demonstrated the capacity to significantly reduce bacterial counts by ≈3‐log or expedite wound healing within a 10‐day timeframe

CC1(C)S[C@@H]2[C@H](NC(=O)[C@H](N)c3ccccc3)C(=O)N2[C@H]1C(=O)O [ampicillin, Ampicillin]
MIC [2]: 12.5 µM (≈ 4.37 µg/mL) | MIC [3]: > 71.6 µM | MIC [4]: 12.5 µM (≈ 4.37 µg/mL) | MIC (Klebsiella pneumoniae K7): > 71.6 µM | MIC [5]: 71.6 µM (≈ 25 µg/mL) | MIC [6]: > 71.6 µM | MIC [7]: 35.8 µM (≈ 12.5 µg/mL) | MIC [8]: > 71.6 µM | MIC [9]: 1.57 µM (≈ 0.549 µg/mL) | MIC [10]: 1.57 µM (≈ 0.549 µg/mL) | MIC [11]: 1.57 µM (≈ 0.549 µg/mL) | MIC (Bacillus subtilis BL‐4): 1.57 µM (≈ 0.549 µg/mL) | MIC [12]: 25 µM (≈ 8.74 µg/mL) | MIC [13]: 6.25 µM (≈ 2.18 µg/mL) | MIC [14]: 4.5 µM (≈ 1.57 µg/mL)

clovibactin
efficacy [15]: effectively controlling drug‐resistant Gram‐positive bacterial infections

LL‐37
bacterial count reduction / wound healing in diabetic wound infections [1]: none of these peptides demonstrated the capacity to significantly reduce bacterial counts by ≈3‐log or expedite wound healing within a 10‐day timeframe

CC[C@H](C)CCCCC(=O)N[C@@H](CCN)C(=O)N[C@H](C(=O)N[C@@H](CCN)C(=O)N[C@H]1CCNC(=O)[C@H]([C@@H](C)O)NC(=O)[C@H](CCN)NC(=O)[C@H](CCN)NC(=O)[C@H](CC(C)C)NC(=O)[C@@H](CC(C)C)NC(=O)[C@H](CCN)NC1=O)[C@@H](C)O [colistin, Colistin] (X1-[Dab]T[Dab][Dab][Dab][dL]L[Dab][Dab]T; lactam 4-C (inferred); N-terminus assumed)
MIC (Escherichia coli O157:H7): 3.13 µmol/L (≈ 3.66 µg/mL) | time to eradicate all E. coli cells (E. coli O157:H7): 2 h | effect on persisters [16]: had little effect on the survival

cecropin
bacterial count reduction / wound healing in diabetic wound infections [1]: none of these peptides demonstrated the capacity to significantly reduce bacterial counts by ≈3‐log or expedite wound healing within a 10‐day timeframe
